Values quoted from earlier work, collected in patent US20250312353A1, “DRUG R[…] TREATMENT OF […] MALFORMATIONS” (University of South Carolina, priority 2024, published 2025).

Key:
[1] = system: human lung tumor associated endothelial cell; settings: on matrigel; even in the presence of VEGF
[2] = system: host macrophage; settings: bacterial infection

COc1nc2ccc(Br)cc2cc1[C@@H](c1ccccc1)[C@@](O)(CCN(C)C)c1cccc2ccccc12 [bedaquiline]
effect on capillary network formation [1]: inhibit capillary network formation
effect on host macrophage innate immune resistance [2]: activate host macrophage innate immune resistance to bacterial infection
